Reference: patent US20150105252A1, “SUBSTITUTED PYRAZOLES AS HERBICIDES” (E I DU PONT DE NEMOURS AND COMPANY, priority 2013, published 2015)

Key:
Italian ryegrass [1] = experiment: Test F preemergence; format: in vivo, Lolium multiflorum
How it was run: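 Pre- and postemergence applications used the same formulation, a non-phytotoxic solvent mixture including surfactant. Soil-applied treatment followed sowing into silt loam, whereas foliar treatment hit plants at the 1- to 4-leaf stage. Scores (0 = no effect, 100 = complete control) were assigned visually after 14–21 days.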

arrowleaf sida = experiment: Test F preemergence; format: in vivo, Sida rhombifolia
Excerpt: (§1) Seeds of plant species selected from corn (Zea mays), soybean (Glycine max), velvetleaf (Abutilon theophrasti), lambsquarters (Chenopodium album), wild poinsettia (Euphorbia heterophylla), pigweed, palmer (palmer pigweed, Amaranthus palmeri), common waterhemp (Amaranthus rudis), surinam grass (Brachiaria decumbens), large crabgrass (Digitaria sanguinalis), crabgrass, Brazil (Brazilian crabgrass, Digitaria horizontalis), fall panicum (Panicum dichotomiflorum), giant foxtail (Setaria faberii), green foxtail (Setaria viridis), goosegrass (Eleusine indica), johnsongrass (Sorghum halepense), common ragweed (Ambrosia elation), barnyardgrass (Echinochloa crus-galli), southern sandbur (Cenchrus echinatus), arrowleaf sida (Sida rhombifolia), Italian ryegrass (Lolium multiflorum), dayflower, VA (Virginia (VA) dayflower, Commelina virginica), field bindweed (Convolvulus arvensis), cocklebur (common cocklebur, Xanthium strumarium), morningglory (Ipomoea coccinea), nightshade (eastern black nightshade, Solanum ptycanthum), kochia (Kochia scoparia), yellow nutsedge (Cyperus esculentus), and hairy beggarticks (Bidens pilosa), were planted into a silt loam soil and treated preemergence with test chemicals formulated in a non-phytotoxic solvent mixture which included a surfactant.
(§2) At the same time, plants from these crop and weed species and also horseweed (Canada horseweed, Conyza canadensis), smartweed (ladysthumb smartweed, Polygonum persicaria), waterhemp_RES1, (ALS & Triazine resistant common waterhemp, Amaranthus rudis), and waterhemp_RES2, (ALS & HPPD resistant common waterhemp, Amaranthus rudis) were treated with postemergence applications of test chemicals formulated in the same manner. Plants ranged in height from 2 to 18 cm for postemergence treatments (1- to 4-leaf stage). Treated plants and controls were maintained in a greenhouse for 14 to 21 days, after which time all species were compared to controls and visually evaluated. Plant response ratings, summarized in Table F, are based on a scale of 0 to 100 where 0 is no effect and 100 is complete control. A dash (-) response means no test result.

chamomile = experiment: Test D postemergence; format: in vivo, Matricaria inodora; settings: scale 0 to 100
Excerpt: Seeds of plant species selected from bluegrass (annual bluegrass, Poa annua), blackgrass (Alopecurus myosuroides), canarygrass (littleseed canarygrass, Phalaris minor), chickweed (common chickweed, Stellaria media), galium (catchweed bedstraw, Galium aparine), bromegrass, downy (downy bromegrass, Bromus tectorum), field poppy (Papaver rhoeas), field violet (Viola arvensis), foxtail, green (green foxtail, Setaria viridis), deadnettle (henbit deadnettle, Lamium amplexicaule), ryegrass, Italian (Italian ryegrass, Lolium multiflorum), kochia (Kochia scoparia), lambsquarters (Chenopodium album), oilseed rape (Brassica napus), pigweed (redroot pigweed, Amaranthus retroflexus), chamomile (scentless chamomile, Matricaria inodora), speedwell (bird's-eye speedwell, Veronica persica), barley, spring (spring barley, Hordeum vulgare), wheat, spring (spring wheat, Triticum aestivum), buckwheat, wild (wild buckwheat, Polygonum convolvulus), mustard, wild (wild mustard, Sinapis arvensis), oat, wild (wild oat, Avena fatua), radish, wild (wild radish, Raphanus raphanistrum), windgrass (Apera spica-venti), Russian thistle (Salsola kali), barley, winter (winter barley, Hordeum vulgare), and wheat, winter (winter wheat, Triticum aestivum) were planted into a silt loam soil and treated preemergence with test chemicals formulated in a non-phytotoxic solvent mixture which included a surfactant.
At the same time, these species were planted in pots containing Redi-Earth® planting medium (Scotts Company, 14111 Scottslawn Road, Marysville, Ohio 43041) comprising spaghnum peat moss, vermiculite, wetting agent and starter nutrients and treated with postemergence applications of the test chemicals formulated in the same manner. Plants ranged in height from 2 to 18 cm (1- to 4-leaf stage). Treated plants and controls were maintained in a controlled growth environment for 14 to 21 days after which time all species were compared to controls and visually evaluated. Plant response ratings, summarized in Table D, are based on a scale of 0 to 100 where 0 is no effect and 100 is complete control. A dash (-) response means no test result.

common ragweed = experiment: Test F postemergence; format: in vivo, Ambrosia elation; settings: scale 0 to 100
Excerpt: as §1, §2

goosegrass = experiment: Test F preemergence; format: in vivo, Eleusine indica
Excerpt: as §1, §2

large crabgrass = experiment: Test F preemergence; format: in vivo, Digitaria sanguinalis
Excerpt: as §1, §2

Italian ryegrass [2] = experiment: Test A postemergence; format: in vivo, Lolium multiflorum
How it was run: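 Visual injury rating, 0–100 (0 no effect, 100 complete control), vs untreated controls ~10 days after treatment in greenhouse. Pre: directed soil spray on seeded loam/sand. Post: 2–10 cm plants, 1–2 leaf stage. Formulation: non-phytotoxic solvent mix + surfactant.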

[3] = Preemergence, 31 g ai/ha, scale 0 to 100
[4] = Preemergence, 62 g ai/ha, scale 0 to 100
[5] = Preemergence, 125 g ai/ha, scale 0 to 100
[6] = preemergence, 8 g ai/ha, scale 0 to 100, 100 is complete control
[7] = preemergence, 16 g ai/ha, scale 0 to 100, 100 is complete control

Row | Structure (SMILES) | Plant response rating, Italian Ryegrass (Italian ryegrass [1]; [3]) | Plant response rating, Italian Ryegrass (Italian ryegrass [1]; [4]) | Plant response rating, Italian Ryegrass (Italian ryegrass [1]; [5]) | Plant response rating, Italian Ryegrass (Italian ryegrass [1]; [6]) | Plant response rating, Italian Ryegrass (Italian ryegrass [1]; [7]) | Plant response rating, Arrowleaf Sida (arrowleaf sida; [3]) | Plant response rating, Arrowleaf Sida (arrowleaf sida; [4]) | Plant response rating, Arrowleaf Sida (arrowleaf sida; [5]) | Plant response rating, Arrowleaf Sida (arrowleaf sida; [6]) | Plant response rating, Common Ragweed (common ragweed; Postemergence, 31 g ai/ha) | Plant response rating, Common Ragweed (common ragweed; Postemergence, 125 g ai/ha) | Plant response rating, Common Ragweed (common ragweed; Postemergence, 250 g ai/ha) | Plant response rating, Common Ragweed (common ragweed; postemergence, 62 g ai/ha) | Plant response rating, Common Ragweed (common ragweed; postemergence, 500 g ai/ha) | Plant response rating, Goosegrass (goosegrass; [4]) | Plant response rating, Goosegrass (goosegrass; [5]) | Plant response rating, Goosegrass (goosegrass; [6]) | Plant response rating, Large Crabgrass (large crabgrass; [4]) | Plant response rating, Large Crabgrass (large crabgrass; [5]) | Plant response rating, Large Crabgrass (large crabgrass; [6]) | also measured
1 | CCc1cc(C(=O)NCC(F)(F)F)nn1Cc1ccnc(C(F)(F)F)c1 [Compound 78, 5-ethyl-N-(2,2,2-trifluoroethyl)-1-[[(2-trifluoromethyl)-4-pyridinyl]methyl]-1H-pyrazole-3-carboxamide] | 5 | 60 | 90 | 0 | 0 | 0 | 20 | 35 | 0 | 65 | 70 | 80 | 50 | 95 | 90 | 100 | 5 | 100 | 100 | 75 | Plant response rating, Arrowleaf Sida (arrowleaf sida; [7]): 0; Chamomile plant response rating (chamomile; Postemergence, 31 g ai/ha): 30; Chamomile plant response rating (chamomile; Postemergence, 125 g ai/ha): 65; Chamomile plant response rating (chamomile; Postemergence, 250 g ai/ha): 75; Chamomile plant response rating (chamomile; postemergence, 62 g ai/ha): 50; Plant response rating, Goosegrass (goosegrass; [3]): 90; Plant response rating, Goosegrass (goosegrass; [7]): 40; Plant response rating, Large Crabgrass (large crabgrass; [3]): 100; Plant response rating, Large Crabgrass (large crabgrass; [7]): 98
2 | CCOc1cc(C(=O)NCC(F)(F)F)nn1Cc1ccnc(C(F)(F)F)c1 [Compound 104] | 40 | 60 | 75 | 0 | 0 | 10 | 20 | 30 | 0 | 40 | 70 | 98 | 50 | 98 | 75 | 100 | 5 | 100 | 100 | 70 | Plant response rating, Arrowleaf Sida (arrowleaf sida; [7]): 0; Plant response rating, Goosegrass (goosegrass; [3]): 30; Plant response rating, Goosegrass (goosegrass; [7]): 25; Plant response rating, Large Crabgrass (large crabgrass; [3]): 100; Plant response rating, Large Crabgrass (large crabgrass; [7]): 90
3 | CCCc1cc(C(=O)NCC(F)(F)F)nn1Cc1ccnc(C(F)(F)F)c1 [Compound 105] | 50 | 60 | 80 | 0 | 0 | 0 | 0 | 15 | 0 | 50 | 90 | 90 | 70 | 95 | 90 | 98 | 30 | 100 | 100 | 65 | Plant response rating, Arrowleaf Sida (arrowleaf sida; [7]): 0; Chamomile plant response rating (chamomile; Postemergence, 31 g ai/ha): 25; Chamomile plant response rating (chamomile; Postemergence, 125 g ai/ha): 65; Chamomile plant response rating (chamomile; Postemergence, 250 g ai/ha): 80; Chamomile plant response rating (chamomile; postemergence, 62 g ai/ha): 50; Plant response rating, Goosegrass (goosegrass; [3]): 40; Plant response rating, Goosegrass (goosegrass; [7]): 35; Plant response rating, Large Crabgrass (large crabgrass; [3]): 98; Plant response rating, Large Crabgrass (large crabgrass; [7]): 70
4 | CCONC(=O)c1cc(CC)n(Cc2cc(C(F)(F)F)no2)n1 [Compound 125] |  |  |  |  |  |  |  |  |  |  |  |  |  |  |  |  |  |  |  |  | Italian Ryegrass plant response rating (Italian ryegrass [2]; Postemergence, 500 g ai/ha, 0 to 100 scale (0 no effect, 100 complete control)): 80; Italian Ryegrass plant response rating (Italian ryegrass [2]; postemergence, 125 g ai/ha, about 10 days, visual rating on 0 to 100 scale (0 no effect, 100 complete control)): 20
5 | CCOc1cc(C(=O)NC(C)C)nn1Cc1ccnc(C(F)(F)F)c1 [Compound 188] |  | 70 | 80 | 0 |  |  | 10 | 20 | 0 | 50 | 70 | 85 | 60 | 98 | 98 | 100 | 5 | 100 | 100 | 90 | Plant response rating, Arrowleaf Sida (arrowleaf sida; Preemergence, 16 g ai/ha, scale 0 to 100): 0; Chamomile plant response rating (chamomile; Postemergence, 31 g ai/ha): 65; Chamomile plant response rating (chamomile; Postemergence, 125 g ai/ha): 70; Chamomile plant response rating (chamomile; Postemergence, 250 g ai/ha): 75; Chamomile plant response rating (chamomile; postemergence, 62 g ai/ha): 65; Plant response rating, Large Crabgrass (large crabgrass; preemergence, scale 0 to 100, 100 is complete control): 100
